Assays:
[1] = molecular target: T1, Full length WRN protein (aa 2-1432) (Homo sapiens (Human), UniProt Q14191); assay: WRN ATPase ADP-Glo biochemical assay, Assay Format A (10 μM ATP); details: 0.25 nM WRN, 100 nM C6.18 ssDNA, 30 min preincubation, read-out: ATPase ADPGlo AC50 (uM)- Assay Format A
From the text: Full length Werner helicase construct (Uniprot: Q14191) with an N-terminal FLAG-AVI-TEV tag was expressed using the Sf9 cell/baculovirus expression system. The harvested cell pellet was resuspended and lysed in a glass homogenizer. After insoluble material was removed by centrifugation, the helicase protein was first purified with FLAG affinity resin and then further purified through a size-exclusion chromatography column. Peak fractions containing the purified protein were concentrated, split into aliquots and frozen in liquid nitrogen to be thawed before use. Biochemical Assay Description (ATPase activity)-Assay Format A WRN activity was measured using an ATPase assay. Full length WRN protein (aa 2-1432) (production described separately) was used for the biochemical activity assays. The 39-mer ssDNA “C6.18” [NT] was purchased from IDT and used as a substrate. Quantification of ATP hydrolysis was evaluated using the ADP-Glo assay kit (Promega, Madison, WI). An enzyme titration time-course was performed to determine the optimal assay conditions. […] To evaluate the inhibitory effects of the compounds, 11-point 3-fold serial dilutions were prepared in DMSO. 50 nL of each concentration in duplicate was preincubated for 30 minutes in a 384-well microplate (Greiner #784075) with 5 μL of 0.5 nM WRN in assay buffer. The reaction was initiated by adding 5 μL of 200 nM C6.18 DNA with 20 μM ATP and was allowed to proceed for 30 minutes at room temperature. The reaction was stopped with 10 μL ADP-Glo reagent for 1 hour to remove unreacted ATP. Lastly, 20 μL ATP detection reagent was added and incubated for 1 hour to generate the luminescence signal. Control wells included “high controls” with no inhibition (DMSO, no compound) and “low controls” with maximum inhibition (no WRN). Luminescence was recorded on a PHERAstar (BMG Labtech, Ortenberg, Germany). Data was fit using the “Smart Fit” method within the Genedata Screener Software (Basel, Switzerland) to obtain IC50 values using four-parameter fits. Reported IC50s are the geometric means of at least two independent trials.

HCT116 cells = assay: HCT116 (MSI) 7 day viability, CellTiter Glo; type: cell-based; details: Homo sapiens, HCT-116, 168 h, 7 days, read-out: HCT116 (MSI) Viability 7 Day Abs AC50
Summary of the method: (§1)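 HCT116 (50 cells/well) or HT29 (500 cells/well) exposed 7 days at 37° C, 5% CO2, to 10-point 3-fold compound dilutions. Viability measured by CellTiter Glo luminescence, background from cell-free wells; IC50 from four-parameter logistic fit, geometric mean of at least 2 replicates.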

HT29 cells = assay: HT29 (MSS) 7 day viability, CellTiter Glo; type: cell-based; details: Homo sapiens, HT-29, 168 h, 7 days, read-out: HT29 (MSS) Viability 7 Day CTGAbs AC50
Summary of the method: as §1

[2] = molecular target: T1, Full length WRN protein (aa 2-1432); assay: WRN ATPase ADP-Glo biochemical assay, Assay Format B (100 μM ATP); details: 0.25 nM WRN, 100 nM C6.18 ssDNA, 60 min preincubation
[3] = read-out: ATPase ADPGlo AC50 (uM)- Assay Format B

T1 sequence (Q14191 2-1432): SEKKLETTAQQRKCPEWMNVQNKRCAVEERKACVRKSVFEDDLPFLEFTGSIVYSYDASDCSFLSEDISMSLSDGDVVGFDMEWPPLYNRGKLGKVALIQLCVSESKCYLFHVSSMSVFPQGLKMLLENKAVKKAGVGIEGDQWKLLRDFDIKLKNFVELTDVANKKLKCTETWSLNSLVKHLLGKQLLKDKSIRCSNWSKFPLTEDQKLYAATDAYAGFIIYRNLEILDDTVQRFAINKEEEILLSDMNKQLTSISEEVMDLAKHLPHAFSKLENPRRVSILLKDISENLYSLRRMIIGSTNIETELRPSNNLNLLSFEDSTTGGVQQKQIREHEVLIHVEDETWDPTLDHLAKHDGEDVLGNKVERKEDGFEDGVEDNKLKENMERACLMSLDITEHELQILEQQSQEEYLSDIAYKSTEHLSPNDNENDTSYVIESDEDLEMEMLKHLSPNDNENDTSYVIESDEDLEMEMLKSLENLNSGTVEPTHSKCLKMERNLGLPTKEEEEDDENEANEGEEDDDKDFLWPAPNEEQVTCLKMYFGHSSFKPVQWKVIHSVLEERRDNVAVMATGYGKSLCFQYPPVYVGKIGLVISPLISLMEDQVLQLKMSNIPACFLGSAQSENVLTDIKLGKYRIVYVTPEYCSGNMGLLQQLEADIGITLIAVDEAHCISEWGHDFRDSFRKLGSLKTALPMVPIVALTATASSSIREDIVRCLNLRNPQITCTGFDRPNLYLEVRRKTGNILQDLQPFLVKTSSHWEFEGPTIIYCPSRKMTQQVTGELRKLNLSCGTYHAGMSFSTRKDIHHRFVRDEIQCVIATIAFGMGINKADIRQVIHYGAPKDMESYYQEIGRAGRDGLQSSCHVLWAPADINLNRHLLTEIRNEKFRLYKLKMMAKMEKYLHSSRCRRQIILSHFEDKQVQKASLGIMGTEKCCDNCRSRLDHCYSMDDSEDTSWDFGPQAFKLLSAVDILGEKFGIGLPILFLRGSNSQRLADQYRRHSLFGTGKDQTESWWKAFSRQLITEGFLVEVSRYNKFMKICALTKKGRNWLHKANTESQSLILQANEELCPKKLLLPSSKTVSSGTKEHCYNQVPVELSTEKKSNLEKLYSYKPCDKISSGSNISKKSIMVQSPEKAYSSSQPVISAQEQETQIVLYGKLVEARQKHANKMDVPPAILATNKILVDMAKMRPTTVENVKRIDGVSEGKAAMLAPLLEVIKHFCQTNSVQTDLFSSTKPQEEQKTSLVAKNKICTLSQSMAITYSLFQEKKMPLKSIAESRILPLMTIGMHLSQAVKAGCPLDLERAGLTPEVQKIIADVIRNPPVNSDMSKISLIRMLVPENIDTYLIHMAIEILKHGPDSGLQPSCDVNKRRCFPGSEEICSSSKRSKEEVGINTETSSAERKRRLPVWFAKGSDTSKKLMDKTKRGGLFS

| SMILES | AC50 [1] | AC50 [2, 3] | AC50 (HCT116 cells) | AC50 (HT29 cells) | AC50 ([2]; ATPase ADPGlo AC50 (uM)- Assay Format B) |
| --- | --- | --- | --- | --- | --- |
| C=CC(=O)N1CCc2nn(-c3ccc(C4CC4)cc3)c3c2C(C1)N(C(=O)c1ccc(C(F)(F)F)nn1)CC3 (stereo not drawn) [Compound 115, 1-(2-(4-cyclopropylphenyl)-5-(6-(trifluoromethyl)pyridazine-3-carbonyl)-2,3,4,5,5a,6,8,9-octahydro-7H-1,2,5,7-tetraazabenzo[cd]azulen-7-yl)prop-2-en-1-one] | 0.015 to 0.055 µM | – | 500 to 1000 nM | > 3000 nM | – |
| C=CC(=O)N1CCc2nn(-c3ccc(C4CC4)cc3)c3c2C(C1)N(C(=O)c1csc(S(N)(=O)=O)c1)CC3 (stereo not drawn) [Compound 125, 4-(7-acryloyl-2-(4-cyclopropylphenyl)-3,4,5,5a,6,7,8,9-octahydro-2H-1,2,5,7-tetraazabenzo[cd]azulene-5-carbonyl)thiophene-2-sulfonamide] | > 0.055 µM | – | – | – | – |
| C=CC(=O)N1CCc2nn(-c3ccc(C4CC4)cc3)c3c2C(C1)N(C(=O)c1ccc(Br)nn1)CC3 (stereo not drawn) [Compound 108, 1-(5-(6-bromopyridazine-3-carbonyl)-2-(4-cyclopropylphenyl)-2,3,4,5,5a,6,8,9-octahydro-7H-1,2,5,7-tetraazabenzo[cd]azulen-7-yl)prop-2-en-1-one] | 0.005 to 0.015 µM | – | – | – | – |
| C=CC(=O)N1CCc2nn(-c3ccc(C4CC4)cc3)c3c2C(C1)N(C(=O)c1cnc2c(c1)c(C(F)(F)F)nn2C)CC3 (stereo not drawn) [Compound 111, 1-(2-(4-cyclopropylphenyl)-5-(1-methyl-3-(trifluoromethyl)-1H-pyrazolo[3,4-b]pyridine-5-carbonyl)-2,3,4,5,5a,6,8,9-octahydro-7H-1,2,5,7-tetraazabenzo[cd]azulen-7-yl)prop-2-en-1-one] | 0.015 to 0.055 µM | – | – | – | – |
| C=CC(=O)N1CCc2nn(-c3ccc(C4CC4)cc3)c3c2C(C1)N(C(=O)c1cnc2[nH]c(C(F)(F)F)nc2c1)CC3 (stereo not drawn) [Compound 124, 1-(2-(4-cyclopropylphenyl)-5-(2-(trifluoromethyl)-3H-imidazo[4,5-b]pyridine-6-carbonyl)-2,3,4,5,5a,6,8,9-octahydro-7H-1,2,5,7-tetraazabenzo[cd]azulen-7-yl)prop-2-en-1-one] | 0.015 to 0.055 µM | – | – | – | – |
| C=CC(=O)N1CC(OC2(COC)CC2)c2nn(-c3ccc(C4CC4)cc3)c3c2C(C1)N(C(=O)c1ccc(C(F)(F)F)nc1)CC3 (stereo not drawn) [Compound 235, 1-(2-(4-cyclopropylphenyl)-9-(1-(methoxymethyl)cyclopropoxy)-5-(6-(trifluoromethyl)nicotinoyl)-2,3,4,5,5a,6,8,9-octahydro-7H-1,2,5,7-tetraazabenzo[cd]azulen-7-yl)prop-2-en-1-one] | – | > 0.055 µM | 100 to 250 nM | > 3000 nM | – |
| C=CC(=O)N1CCc2nn(-c3ccc(C4CC4)cc3)c3c2C(C1)N(C(=O)c1c(N)nc(C(F)(F)F)c(F)c1N)CC3 (stereo not drawn) [Compound 220, 1-(2-(4-cyclopropylphenyl)-5-(2,4-diamino-5-fluoro-6-(trifluoromethyl)nicotinoyl)-2,3,4,5,5a,6,8,9-octahydro-7H-1,2,5,7-tetraazabenzo[cd]azulen-7-yl)prop-2-en-1-one] | – | 0.0015 to 0.005 µM | 1 to 100 nM | > 3000 nM | – |
| C=CC(=O)N1CCc2nn(-c3ccc(C4CC4)cc3)c3c2C(C1)N(C(=O)C12CC(C(F)(F)F)(C1)C2)CC3 (stereo not drawn) [Compound 121, 1-(2-(4-cyclopropylphenyl)-5-(3-(trifluoromethyl)bicyclo [1.1.1]pentane-1-carbonyl)-2,3,4,5,5a,6,8,9-octahydro-7H-1,2,5,7-tetraazabenzo[cd]azulen-7-yl)prop-2-en-1-one] | 0.015 to 0.055 µM | – | – | – | – |
| C=CC(=O)N1CCc2nn(-c3ccc(C4CC4)cc3)c3c2C(C1)N(C(=O)c1c(N)cc(Br)c2[nH]cnc12)CC3 (stereo not drawn) [Compound 188, 1-(5-(5-amino-7-bromo-1H-benzo[d]imidazole-4-carbonyl)-2-(4-cyclopropylphenyl)-2,3,4,5,5a,6,8,9-octahydro-7H-1,2,5,7-tetraazabenzo[cd]azulen-7-yl)prop-2-en-1-one] | – | 0.0015 to 0.005 µM | 1 to 100 nM | > 3000 nM | – |
| C=CC(=O)N1CCc2nn(-c3cc(F)c(C4CC4)cc3O)c3c2C(C1)N(C(=O)c1cnc(OC(F)(F)F)c(F)c1N)CC3 (stereo not drawn) [Compound 254, 1-(5-(4-amino-5-fluoro-6-(trifluoromethoxy)nicotinoyl)-2-(4-cyclopropyl-5-fluoro-2-hydroxyphenyl)-2,3,4,5,5a,6,8,9-octahydro-7H-1,2,5,7-tetraazabenzo[cd]azulen-7-yl)prop-2-en-1-one] | – | – | 1 to 100 nM | > 3000 nM | 0.015 to 0.055 µM |

Second part, led by results:

| AC50 [1] | AC50 [2, 3] | SMILES | AC50 (HCT116 cells) | AC50 (HT29 cells) | AC50 ([2]; ATPase ADPGlo AC50 (uM)- Assay Format B) |
| --- | --- | --- | --- | --- | --- |
| 0.005 to 0.015 µM | – | C=CC(=O)N1CCc2nn(-c3ccc(C4CC4)cc3)c3c2C(C1)N(C(=O)c1cnc(Br)cc1C)CC3 (stereo not drawn) [Compound 113, 1-(5-(6-bromo-4-methylnicotinoyl)-2-(4-cyclopropylphenyl)-2,3,4,5,5a,6,8,9-octahydro-7H-1,2,5,7-tetraazabenzo[cd]azulen-7-yl)prop-2-en-1-one] | – | – | – |
| – | 0.005 to 0.015 µM | C=CC(=O)N1CCc2nn(-c3ccc(C(C)C)cc3O)c3c2C(C1)N(C(=O)c1ccc(C(F)(F)F)nc1N)CC3 (stereo not drawn) [Compound 173, 1-(5-(2-amino-6-(trifluoromethyl)nicotinoyl)-2-(2-hydroxy-4-isopropylphenyl)-2,3,4,5,5a,6,8,9-octahydro-7H-1,2,5,7-tetraazabenzo[cd]azulen-7-yl)prop-2-en-1-one] | 1 to 100 nM | > 3000 nM | – |
| – | 0.0015 to 0.005 µM | C=CC(=O)N1CCc2nn(-c3ccc(C4CCC4)cc3O)c3c2C(C1)N(C(=O)c1cnc(OC(F)F)cc1N)CC3 (stereo not drawn) [Compound 164, 1-(5-(4-amino-6-(difluoromethoxy)nicotinoyl)-2-(4-cyclobutyl-2-hydroxyphenyl)-2,3,4,5,5a,6,8,9-octahydro-7H-1,2,5,7-tetraazabenzo[cd]azulen-7-yl)prop-2-en-1-one] | 1 to 100 nM | > 3000 nM | – |
| – | 0.015 to 0.055 µM | C=CC(=O)N1CCc2nn(-c3ccc(C4CCC4)cc3O)c3c2C(C1)N(C(=O)c1cnc(Br)c(OC(F)F)c1)CC3 (stereo not drawn) [Compound 94, 1-(5-(6-bromo-5-(difluoromethoxy)nicotinoyl)-2-(4-cyclobutyl-2-hydroxyphenyl)-2,3,4,5,5a,6,8,9-octahydro-7H-1,2,5,7-tetraazabenzo[cd]azulen-7-yl)prop-2-en-1-one] | 1 to 100 nM | > 3000 nM | – |
| – | 0.0015 to 0.005 µM | C=CC(=O)N1CCc2nn(-c3ccc(C4CC4)cc3O)c3c2C(C1)N(C(=O)c1cnc(SC(F)(F)F)cc1N)CC3 (stereo not drawn) [Compound 209, 1-(5-(4-amino-6-((trifluoromethyl)thio)nicotinoyl)-2-(4-cyclopropyl-2-hydroxyphenyl)-2,3,4,5,5a,6,8,9-octahydro-7H-1,2,5,7-tetraazabenzo[cd]azulen-7-yl)prop-2-en-1-one] | 1 to 100 nM | > 3000 nM | – |
| – | 0.0015 to 0.005 µM | C=CC(=O)N1CCc2nn(-c3ccc(C4CC4)cc3O)c3c2C(C1)N(C(=O)c1cnc(Cl)c(F)c1N)CC3 (stereo not drawn) [Compound 210, 1-(5-(4-amino-6-chloro-5-fluoronicotinoyl)-2-(4-cyclopropyl-2-hydroxyphenyl)-2,3,4,5,5a,6,8,9-octahydro-7H-1,2,5,7-tetraazabenzo[cd]azulen-7-yl)prop-2-en-1-one] | 1 to 100 nM | > 3000 nM | – |
| – | 0.005 to 0.015 µM | C=CC(=O)N1CCc2nn(-c3ccc(C4CC4)cc3O)c3c2C(C1)N(C(=O)c1ccc(C(F)(F)F)nc1)CC3 (stereo not drawn) [Compound 213, 1-(2-(4-cyclopropyl-2-hydroxyphenyl)-5-(6-(trifluoromethyl)nicotinoyl)-2,3,4,5,5a,6,8,9-octahydro-7H-1,2,5,7-tetraazabenzo[cd]azulen-7-yl)prop-2-en-1-one] | 1 to 100 nM | > 3000 nM | – |

Source: US20250346600A1, “TRICYCLIC DERIVATIVES AND RELATED USES” (MOMA Therapeutics, Inc., priority 2023, published 2025)
